Results: patent US20230348454A1, “COMPOUNDS AS MODULATORS OF BIS-PHOSPHOGLYCERATE MUTASE FOR THE TREATMENT OF SICKLE CELL DISEASE” (Genzyme Corporation, priority 2020, published 2023)
Read-outs that look alike come from different tables or passages of the source.

Target: T1, hBPGM (Homo sapiens, UniProt P07738)
T1 sequence (P07738 1-259): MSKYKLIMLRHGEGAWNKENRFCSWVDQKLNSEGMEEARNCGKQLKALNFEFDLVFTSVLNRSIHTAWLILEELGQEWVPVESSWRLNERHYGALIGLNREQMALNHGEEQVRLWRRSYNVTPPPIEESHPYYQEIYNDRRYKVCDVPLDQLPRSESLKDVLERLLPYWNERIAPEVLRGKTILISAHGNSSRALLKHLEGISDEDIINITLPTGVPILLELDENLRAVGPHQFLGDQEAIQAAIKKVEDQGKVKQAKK
Experiment: BPGM synthase assay
Assay type: biochemical
Protocol: The following materials were used in this assay: deionized water; Bisphosphoglycerate mutase (BPGM; Standard Buffer: 50 mM Tris, 0.01% Tween 20, pH 7.4); BPGM Reaction Buffer (50 mM Tris, 0.01% Tween 20, 3.23 mM KH2PO4, pH 7.4); dithiothreitol (DTT; Stock solution: 100 mM in Standard Buffer); 384-Well Black Assay Plate (Corning, P/N 3575); DMSO; BPGM Stock Solution (500 nM in BPGM Standard Buffer); Glyceraldehyde 3-phosphate dehydrogenase (GAPDH; Stock Solution: 40 U/mL in 20 mM Tris-HCL Buffer with 20% Glycerol, 1 mM EDTA, 1 mM DTT); Glyceraldehyde 3-phosphate (GAP; Stock Solution: 20 mM in BPGM Standard Buffer); 3-PG Stock Solution (500 μM in BPGM Standard Buffer); Nicotinamide adenine dinucleotide (NAD; Stock Solution: 50 mM in BPGM Standard Buffer); Koningic Acid (1 mM Stock in DMSO); Resazurin Stock Solution (10 mM in DMSO); Diaphorase Stock Solution (40 U/mL in BPGM Standard Buffer); DTT Reaction Buffer (1 mM DTT in BPGM Reaction Buffer); Enzyme Solution (5 nM BPGM, 0.4 U/mL GAPDH in DTT Reaction Buffer); GAPDH Solution (0.4 U/mL GAPDH in DTT Reaction Buffer); Substrate Solution (2 mM NAD, 20 μM 3PG, 800 μM GAP in DTT Reaction Buffer); and Resazurin Solution (5 U/mL Diaphorase, 500 μM Resazurin in BPGM Standard Buffer).
To the assay plate was added Enzyme Solution (20 uL) to columns 2-22 and 24 of the assay plate. To columns 1 and 23 was added GAPDH Solution (20 uL). A separate compound plate was prepared at the desired concentrations and all wells were normalized with 5% DMSO. The compound plate was incubated for 30 minutes at RT. Next, the substrate solution (20 μL) was dispensed to all reaction wells and the plate was incubated for 60 minutes at RT. Koningic acid (1 μL) was added and the plate was incubated for 10 minutes at RT. During this time period, the NADH fluorescence was read at ex: 360/em: 460. Next, Resazurin Solution (10 μL) was added to all reaction wells and the plate was incubated for 30 minutes at RT. The resorufin fluorescence was then read at ex:544/em:590.

[1] = Table 6, read-out: huBPGM: synthase Enzyme IC50

Row | IC50 [1] | IC50 (Table 3, read-out: hBPGM Synthase IC50) | SMILES
1 | 340 nM | – | Cc1nc(C)c(-c2cccc(-c3cc(F)c4nn[nH]c4c3F)n2)s1 [Example 90]
2 | 210 nM | – | Cc1nc(CN(C)CC(C)(C)O)sc1-c1cccc(-c2cc(F)c3nn[nH]c3c2F)n1 [Example 225]
3 | 200 nM | – | Cc1nc(COc2ncccn2)sc1-c1csc(-c2cc(F)c(O)c(F)c2F)n1 [Example 70]
4 | 2300 nM | – | Cc1nc(CNC(=O)N2CCC(O)C2)sc1-c1csc(-c2cc(F)c(O)c(F)c2F)n1 (stereo not shown) [Example 92]
5 | 7500 nM | – | Cc1nc(Cc2ccccn2)sc1-c1cccc(-c2ccc(C(=O)NS(C)(=O)=O)cc2)c1 [Example 210]
6 | 75 nM | – | Cc1nc(COc2ccccn2)sc1-c1ccnc(-c2cc(F)c3nn[nH]c3c2F)n1 [Example 41]
7 | 440 nM | – | Cc1nc(COC(=O)N2CCC(O)C2)sc1-c1csc(-c2cc(F)c3[nH]nnc3c2F)n1 (stereo not shown) [Example 75]
8 | 4400 nM | – | Cc1nc(COc2ncccn2)sc1-c1cccc(-c2cc(F)c(O)c(F)c2C)n1 [Example 133]
9 | 200 nM | – | COCc1nc(C)c(-c2cccc(-c3cc(F)c4nn[nH]c4c3F)n2)s1 [Example 68]
10 | 25 nM | – | Cc1nc(COC(=O)N(C)C)sc1-c1nc(-c2cc(F)c3nn[nH]c3c2F)cs1 [Example 44]
11 | 600 nM | – | Cc1nc(COC(=O)N2CCC(O)C2)sc1-c1cccc(-c2cc(F)c(O)c(F)c2F)n1 (stereo not shown) [Example 35]
12 | 1900 nM | – | Cc1nc(CNC(=O)C2CCN(C)CC2)sc1-c1csc(-c2cc(F)c3[nH]nnc3c2)n1 [Example 182]
13 | 260 nM | 256 nM | Cc1nc(COc2ncccn2)sc1-c1cccc(-c2cc(F)c(O)c(C#N)c2)n1 [compound 12]
14 | > 25000 nM | – | COC(=O)NCc1nc(C)c(-c2csc(-c3cc(O)c(S(N)(=O)=O)cc3F)n2)s1 [Example 202]
15 | 3300 nM | – | Cc1nc(C)c(-c2cccc(-c3ccc(C(=O)NS(=O)(=O)c4ccccc4)cc3)n2)s1 [Example 209]
16 | 160 nM | – | Cc1nc(COc2ccccn2)sc1-c1cccc(-c2cc(F)c3nn[nH]c3c2F)n1 [Example 110]
17 | 2200 nM | – | Cc1nnc(-c2cccc(-c3cc(F)c4nn[nH]c4c3F)n2)s1 [Example 232]
18 | 280 nM | – | CC(=O)N(C)Cc1nc(C)c(-c2cccc(-c3cc(F)c4nn[nH]c4c3F)n2)s1 [Example 65]
19 | 20 nM | – | Cc1nc(COC(=O)N2CC(O)C2)sc1-c1cccc(-c2cc(F)c3nn[nH]c3c2F)n1 [Example 59]
20 | > 25000 nM | – | Cc1nc(C)c(-c2csc(-c3cc(O)c(NS(=O)(=O)c4ccccc4)cc3F)n2)s1 [Example 180]
21 | > 25000 nM | – | Cc1nc(-c2cccc(-c3sc(COc4ncccn4)nc3C)n2)nnc1O [Example 230]
22 | 220 nM | – | Cc1nc(COc2ccccn2)sc1-c1csc(-c2cc(F)c(F)c(O)c2F)n1 [Example 55]

Row | IC50 [1] | IC50 (Table 3, read-out: hBPGM Synthase IC50) | SMILES
23 | 47 nM | – | Cc1nc(COCC(=O)N(C)C)sc1-c1csc(-c2cc(F)c3[nH]nnc3c2F)n1 [Example 49]
24 | 1600 nM | – | Cc1nc(COCC(=O)N2CCN(C)CC2)sc1-c1csc(-c2cc(F)c(O)c(F)c2F)n1 [Example 123]
25 | 250 nM | – | Cc1nc(COc2ncccn2)sc1-c1csc(-c2cc(F)c(C#N)c(O)c2F)n1 [Example 33]
26 | 4100 nM | – | Cc1nc(C)c(-c2ccn(-c3cc(F)c4[nH]nnc4c3F)n2)s1 [Example 42]
27 | 74 nM | – | Cc1nc(COC(C)C(=O)N(C)C)sc1-c1csc(-c2cc(F)c3[nH]nnc3c2F)n1 (stereo not shown) [Example 50]
28 | 6500 nM | – | Cc1nc(COc2ccccn2)sc1-c1cccc(-c2cc(F)c(O)c(F)c2)n1 [Example 199]
29 | 5400 nM | – | Cc1ncsc1-c1cccc(-c2cc(F)c3[nH]nnc3c2F)n1 [Example 216]
30 | 3300 nM | – | Cc1nc(COc2ccccn2)sc1-c1cccc(-c2cc(F)c(O)c(C#N)c2)n1 [Example 121]
31 | 16 nM | – | Cc1nc(COc2ncccn2)sc1-c1csc(-c2cc(F)c3[nH]nnc3c2F)n1 [Example 66]
32 | 1600 nM | – | Cc1nc(CNC(=O)N(C)C)sc1-c1cccc(-c2cc(F)c(O)c(F)c2F)n1 [Example 28]
33 | 55 nM | – | Cc1nc(COC(C)C(=O)N(C)C)sc1-c1cccc(-c2cc(F)c3nn[nH]c3c2F)n1 (stereo not shown) [Example 60]
34 | 650 nM | – | Cc1nc(CNC(=O)N(C)C)sc1-c1csc(-c2cc(F)c(O)c(F)c2F)n1 [Example 112]
35 | 13000 nM | – | Cc1nc(CNC(=O)C(C)(C)C)sc1-c1cccc(-c2cc(F)c(O)c(F)c2F)c1 [Example 146]
36 | 58 nM | – | Cc1nc(COCC(C)(C)O)sc1-c1cccc(-c2cc(F)c3nn[nH]c3c2)n1 [Example 219]
37 | 250 nM | – | Cc1nc(COc2ncccn2)sc1-c1ccnc(-c2cc(O)c(C#N)c(F)c2)c1 [Example 24]
38 | > 25000 nM | – | Cc1nc(COc2ncccn2)sc1-c1cccc(-c2ccc3[nH]c(=O)oc3c2)n1 [Example 117]
39 | 130 nM | – | Cc1nc(COC(=O)N(C)C)sc1-c1ccn(-c2cc(F)c3[nH]nnc3c2F)n1 [Example 46]
40 | 570 nM | – | Cc1nc(CNC(=O)C(C)(C)C)sc1-c1csc(-c2cc(F)c(O)c(F)c2F)n1 [Example 111]
41 | 41 nM | – | COC1CCN(C(=O)OCc2nc(C)c(-c3cccc(-c4cc(F)c5nn[nH]c5c4F)n3)s2)C1 (stereo not shown) [Example 39]
42 | 33 nM | – | COC(=O)NCc1nc(C)c(-c2cccc(-c3cc(F)c4nn[nH]c4c3F)n2)s1 [Example 122]
43 | 31 nM | – | Cc1nc(COCC(=O)N(C)C)sc1-c1nc(-c2cc(F)c3nn[nH]c3c2F)cs1 [Example 48]
44 | > 25000 nM | – | Cc1nc(C)c(CCOc2cc(F)c3nn[nH]c3c2F)s1 [Example 222]

Row | IC50 [1] | IC50 (Table 3, read-out: hBPGM Synthase IC50) | SMILES
45 | 410 nM | – | Cc1nc(COCC(C)(C)O)sc1-c1cccc(-c2cc(F)c(O)c(F)c2F)n1 [Example 218]
46 | 640 nM | – | Cc1nc(CO)sc1-c1cccc(-c2cc(F)c3nn[nH]c3c2F)n1 [Example 91]
47 | 35 nM | – | Cc1nc(COC(=O)N2CCC(C)(O)C2)sc1-c1cccc(-c2cc(F)c3[nH]nnc3c2F)n1 (stereo not shown) [Example 31]
48 | > 25000 nM | – | Cc1nc(COc2ncccn2)sc1-c1cccc(-c2ccc([N+](=O)[O-])c(F)c2)n1 [Example 134]
49 | 30 nM | – | Cc1nc(COCC(C)(C)O)sc1-c1nc(-c2cc(F)c3nn[nH]c3c2F)cs1 [Example 224]
50 | 5700 nM | – | Cc1nc(COC(=O)N2CCC(N)C2)sc1-c1cccc(-c2cc(F)c(O)c(F)c2F)n1 (stereo not shown) [Example 29]
51 | > 25000 nM | – | Cc1nc(COc2ncccn2)sc1-c1cccc(-c2ccc(-n3cn[nH]c3=O)cc2)n1 [Example 162]
52 | 170 nM | – | Cc1nc(COCCN(C)C)sc1-c1cccc(-c2cc(F)c3nn[nH]c3c2F)n1 [Example 221]
53 | > 25000 nM | – | COc1c(F)cc(-c2cccc(-c3sc(COc4ncccn4)nc3C)n2)c(F)c1C#N [Example 228]
54 | 290 nM | – | Cc1nc(COc2ncccn2)sc1-c1ccnc(-c2cc(F)c(O)c(F)c2F)c1 [Example 57]
55 | 380 nM | – | Cc1nc(CO)sc1-c1csc(-c2cc(F)c3[nH]nnc3c2F)n1 [Example 87]
56 | 250 nM | – | COCc1nc(C)c(-c2cccc(-c3cc(F)c4nn[nH]c4c3F)n2)s1 [Example 34]
57 | 220 nM | – | Cc1nc(CNC(=O)N2CCC(O)C2)sc1-c1cccc(-c2cc(F)c3nn[nH]c3c2F)n1 (stereo not shown) [Example 61]
58 | 91 nM | – | CC(=O)NCc1nc(C)c(-c2cccc(-c3cc(F)c4nn[nH]c4c3F)n2)s1 [Example 54]
59 | 12000 nM | – | COC(=O)NCc1nc(C)c(-c2csc(-c3cnc(O)c(F)c3)n2)s1 [Example 200]
60 | 2400 nM | – | Cc1nc(COC(=O)N2CCC(O)C2)sc1-c1csc(-c2cc(F)c(O)c(F)c2F)n1 (stereo not shown) [Example 79]
61 | 300 nM | – | Cc1nc(COc2ncccn2)sc1-c1nc(-c2cc(O)c(C#N)c(F)c2)cs1 [Example 71]
62 | 2600 nM | – | Cc1nc(COc2ncccn2)sc1-c1cccc(-c2ccc3oc(=O)[nH]c3c2)n1 [Example 212]
63 | 23000 nM | – | COC(=O)NCc1nc(C)c(-c2csc(-c3cnc(O)nc3)n2)s1 [Example 193]
64 | 36 nM | – | Cc1nc(COc2cccnn2)sc1-c1csc(-c2cc(F)c3[nH]nnc3c2F)n1 [Example 38]
65 | 76 nM | – | Cc1nc(COC(=O)N2CCC(N(C)C)C2)sc1-c1cccc(-c2cc(F)c3nn[nH]c3c2F)n1 (stereo not shown) [Example 32]
66 | 1300 nM | – | Cc1nc(COCC(C)(C)C)sc1-c1cccc(-c2cc(F)c3nn[nH]c3c2F)n1 [Example 234]
